Here are results for 17 molecules from US5480969A, “Antagonists of LHRH” (The Administrators of the Tulane Educational Fund, priority 1992, dated 1996).

Data set [1] deals with rat mast cells. The experiment in a line: In vitro histamine release in rat mast cells. The data set is classed as cell-based. On the procedure:
(§1) AOA in rats was determined as reported [Humphries et al.]. The wheal area/10 μg of analog was calculated as described [Ljungqvist et al. 1987]. The histamine release was assayed in rat mast cells as reported [Hook et al., Karten et al. 1987]. […] The biological data are in Table III.
(§2) The AOA was determined in rats as reported [Humphries et al.]. […] The data from the determinations of AOA and ED50 are in Table IV.
(§3) The AOA was determined in rats, as reported (13).

A short description of data set [2]: Wheal area per 10 μg of analog. The data set is classed as in vivo. On the procedure: as §1
Data set [3] has as its system rat mast cells. The settings on record: cited from earlier work; for Histamine release ED50: Table V.
Data set [4] deals with rats. Particulars: cited from earlier work; for AOA %/μg 0.25: 0.25 μg; for dose giving AOA of 100% (AOA100): background, literature antagonists.
Data set [5] has as its system rats. The experiment in a line: Antiovulatory activity (AOA) in rats. The data set is classed as in vivo, rat. Particulars: Table IV / Example 2. As for the experimental part: as §1, §2, §3
The very large number of bioassays which are required for a very large number of samples necessitate a minimal number of animals for the initial bioassays. In these initial bioassays, relatively small differences in potencies, expressed as percent AOA, may be "semi-quantitative," but even such small initial differences may reveal valid trends of potency for structural interpretation and new designs.
Bioassays are repeated as many times as required for quantitative data. […] The initial bioassay of Antide showing 63% at 0.125 μg and 89% at 0.25 μg was on the first sample of […]. The following three bioassays were on a resynthesized sample. However, both samples fulfilled all criteria for purity.

For data set [6] the following is noted: Table III parent analogs from literature; cited from earlier work.
The subject of another data set is gonadotropin secretion. The settings on record: overectomized monkeys; single or multiple doses; cited from earlier work.
The subject of another data set is testosterone secretion. Particulars: male monkeys; single dose; cited from earlier work.

Converted amounts (≈) assume the structure as drawn. “And” between values parts separate entries of the source, which are not always exact repeats. Equal entries are not always repeated. Where two headings read alike, the source gives them in different places. Starred links: 1 amine or outer side, 2 acyl side, 3 side chain; linkers in the order of their positions; H or OH if unused. Non-standard residues stand in square brackets, D forms with d. Residues, ends and D or L forms follow the SMILES beside them. *: point of attachment. dAla(cis-4-NHCOPyz-cHex) = N[C@H](C[C@H]1CC[C@@H](NC(=O)c2cnccn2)CC1)C(=O)O; X2 = O=C(N[C@H]1CC[C@@H](C[C@H](N[*:1])C(=O)[*:2])CC1)c1cnccn1; d(hArg(Et2)) = CCN=C(NCC)NCCCC[C@@H](N)C(=O)O; X1 = O=C([C@@H](Cc1cnc2ccccc2c1)N[*:1])[*:2]; Ala(2-pyrazinyl) = N[C@@H](Cc1cnccn1)C(=O)O; hArg(Et2) = CCN=C(NCC)NCCCC[C@H](N)C(=O)O; dPhe(4-Cl) = N[C@H](Cc1ccc(Cl)cc1)C(=O)O; X3 = O=C([C@@H](Cc1cnccn1)N[*:1])[*:2]; d2Nal = N[C@H](Cc1ccc2ccccc2c1)C(=O)O; Lys(iPr) = CC(C)NCCCC[C@H](N)C(=O)O; d3Pal = N[C@H](Cc1cccnc1)C(=O)O; Cit = NC(=O)NCCC[C@H](N)C(=O)O; Picolinoyl = O=C(c1ccccn1)*; Abu = CC[C@H](N)C(=O)O

With `CC(=O)N[C@H](Cc1ccc2ccccc2c1)C(=O)N[C@H](Cc1ccc(Cl)cc1)C(=O)N[C@H](Cc1cccnc1)C(=O)N[C@@H](CO)C(=O)N[C@@H](CCCCNC(=O)c1ccccn1)C(=O)N[C@H](CCCCNC(=O)[C@H](N)CO)C(=O)N[C@@H](CC(C)C)C(=O)N[C@@H](CCCCNC(C)C)C(=O)N1CCC[C@H]1C(=O)N[C@H](C)C(N)=O` (Ac-[d2Nal][dPhe(4-Cl)][d3Pal]SK(Picolinoyl)[dK](dS)L[Lys(iPr)]P[dA]-NH2), the “ED50 for hist. release” value in the data set with rat mast cells [1] stood at 18 µg/mL.

With `CC(=O)N[C@H](Cc1ccc2ccccc2c1)C(=O)N[C@H](Cc1ccc(Cl)cc1)C(=O)N[C@H](Cc1cccnc1)C(=O)N[C@@H](CO)C(=O)N[C@@H](C[C@H]1CC[C@@H](NC(=O)c2cnccn2)CC1)C(=O)N[C@H](Cc1cnccn1)C(=O)N[C@@H](CC(C)C)C(=O)N[C@@H](CCCCNC(C)C)C(=O)N1CCC[C@H]1C(=O)N[C@H](C)C(N)=O` (Ac-[d2Nal][dPhe(4-Cl)][d3Pal]S[X2][X3]L[Lys(iPr)]P[dA]-NH2), in the data set with rat mast cells [1], the “ED50 for hist. release” value amounted to 88 ± 6.4 µg/mL.

In turn, `CC(=O)N[C@H](Cc1cnc2ccccc2c1)C(=O)N[C@H](Cc1ccc(Cl)cc1)C(=O)N[C@H](Cc1cccnc1)C(=O)N[C@@H](CO)C(=O)N[C@@H](CCCNC(N)=O)C(=O)N[C@H](CCCCNC(=O)c1ccccn1)C(=O)N[C@@H](CC(C)C)C(=O)N[C@@H](CCCNC(=N)N)C(=O)N1CCC[C@H]1C(=O)N[C@H](C)C(N)=O` [Analog 6 (Table VI), [Cit^5]-Argtide] (Ac-[X1][dPhe(4-Cl)][d3Pal]S[Cit][dK](Picolinoyl)LRP[dA]-NH2) displayed an ED50 histamine release in the data set on rat mast cells [1] of 94 µg/mL (≈ 62.6 µM).

Consider `CC(=O)N[C@H](Cc1ccc2ccccc2c1)C(=O)N[C@H](Cc1ccc(Cl)cc1)C(=O)N[C@H](Cc1cccnc1)C(=O)N[C@@H](CO)C(=O)N[C@@H](CCCCNC(=O)c1ccccn1)C(=O)N[C@H](CCCCNC(=O)[C@H](N)CO)C(=O)N[C@@H](CC(C)C)C(=O)N[C@@H](CCCCNC(C)C)C(=O)N1CCC[C@H]1C(=O)N[C@H](C)C(N)=O` [Analog 7 (Table III), [N-Ac-D-Nal^1,D-pClPhe^2,D-3-Pal^3,PicLys^5,D-(DSer)Lys.sup .6,ILys^8,D-Ala^10]-LHRH] (Ac-[d2Nal][dPhe(4-Cl)][d3Pal]SK(Picolinoyl)[dK](dS)L[Lys(iPr)]P[dA]-NH2), for which the Wheal area in data set [2] (Table III / Example 1, listed as 7) was 103.9 ± 5.2 mm^2 /10 μg and 103.9 mm^2 /10 μg.

For the molecule `CC(=O)N[C@H](Cc1cnc2ccccc2c1)C(=O)N[C@H](Cc1ccc(Cl)cc1)C(=O)N[C@H](Cc1cccnc1)C(=O)N[C@@H](CO)C(=O)N[C@@H](C[C@H]1CC[C@@H](NC(=O)c2cnccn2)CC1)C(=O)N[C@H](CCCCNC(=O)c1ccccn1)C(=O)N[C@@H](CC(C)C)C(=O)N[C@@H](CCCCNC(C)C)C(=O)N1CCC[C@H]1C(=O)N[C@H](C)C(N)=O` [Analog 11 (Table III), [N-Ac-D-3-Qal^1, D-pClPhe^2, D-3-Pal^3, c-PzACAla^5, D-PicLys^6, ILys^8, D-Ala^10] LHRH] (Ac-[X1][dPhe(4-Cl)][d3Pal]S[X2][dK](Picolinoyl)L[Lys(iPr)]P[dA]-NH2), in the data set on rat mast cells [1], the “ED50 for hist. release” value was 171 ± 17 µg/mL.

As for `CCN=C(NCC)NCCCC[C@H](NC(=O)[C@H](CC(C)C)NC(=O)[C@@H](CCCCNC(=NCC)NCC)NC(=O)[C@H](Cc1ccc(O)cc1)NC(=O)[C@H](CO)NC(=O)[C@@H](Cc1cccnc1)NC(=O)[C@@H](Cc1ccc(Cl)cc1)NC(=O)[C@@H](Cc1ccc2ccccc2c1)NC(C)=O)C(=O)N1CCC[C@H]1C(=O)N[C@H](C)C(N)=O` [RS-26306, [N-Ac-D-2-Nal^1, D-pClPhe^2, D-3-Pal^3, D-hArg(Et2)^6, hArg(Et)2^8, D-Ala^10] LHRH] (Ac-[d2Nal][dPhe(4-Cl)][d3Pal]SY[d(hArg(Et2))]L[hArg(Et2)]P[dA]-NH2), in the data set on rat mast cells [3], the “Histamine release ED50” value is 13 µg/mL.

With `CC(=O)N[C@H](Cc1ccc2ccccc2c1)C(=O)N[C@H](Cc1ccc(Cl)cc1)C(=O)N[C@H](Cc1cccnc1)C(=O)N[C@@H](CO)C(=O)N[C@@H](Cc1cnccn1)C(=O)N[C@H](C[C@H]1CC[C@@H](NC(=O)c2cnccn2)CC1)C(=O)N[C@@H](CC(C)C)C(=O)N[C@@H](CCCCNC(C)C)C(=O)N1CCC[C@H]1C(=O)N[C@H](C)C(N)=O` [compound 18] (Ac-[d2Nal][dPhe(4-Cl)][d3Pal]S[Ala(2-pyrazinyl)][dAla(cis-4-NHCOPyz-cHex)]L[Lys(iPr)]P[dA]-NH2), the Wheal area in data set [2] (Table III / Example 1) turned out to be 101.6 ± 2.2 mm^2 /10 μg. Moreover, the “ED50 for hist. release” value in the data set on rat mast cells [1] (concentration releasing 50% of total releasable histamine, Table III / Example 1) turned out to be 28 ± 4.7 µg/mL.

Take `CC[C@H](NC(=O)[C@@H](CCCCNC(=O)c1ccccn1)NC(=O)[C@H](CCCCNC(=O)c1ccccn1)NC(=O)[C@H](CO)NC(=O)[C@@H](Cc1cccnc1)NC(=O)[C@@H](Cc1ccc(Cl)cc1)NC(=O)[C@@H](Cc1cnc2ccccc2c1)NC(C)=O)C(=O)N[C@@H](CCCCNC(C)C)C(=O)N1CCC[C@H]1C(=O)N[C@H](C)C(N)=O` [compound 20] (Ac-[X1][dPhe(4-Cl)][d3Pal]SK(Picolinoyl)[dK](Picolinoyl)[Abu][Lys(iPr)]P[dA]-NH2): the Wheal area in data set [2] (Table III / Example 1) came out at 103.9 ± 3.7 mm^2 /10 μg.

The molecule `CC(=O)N[C@H](Cc1ccc2ccccc2c1)C(=O)N[C@H](Cc1ccc(Cl)cc1)C(=O)N[C@H](Cc1cccnc1)C(=O)N[C@@H](CO)C(=O)N[C@@H](CCCCNC(=O)c1ccccn1)C(=O)NC1CCN(C(CC(C)C)C(=O)N[C@@H](CCCCNC(C)C)C(=O)N2CCC[C@H]2C(=O)N[C@H](C)C(N)=O)C1=O` (stereo partly shown) [compound 21] yielded a Wheal area in data set [2] (Table III / Example 1) of 99.5 ± 4.5 mm^2 /10 μg.

With `CC(=O)N[C@H](Cc1cnc2ccccc2c1)C(=O)N[C@H](Cc1ccc(Cl)cc1)C(=O)N[C@H](Cc1cccnc1)C(=O)N[C@@H](CO)C(=O)N[C@@H](CCCCNC(=O)c1ccccn1)C(=O)NC1CCN(C(CC(C)C)C(=O)N[C@@H](CCCCNC(C)C)C(=O)N2CCC[C@H]2C(=O)N[C@H](C)C(N)=O)C1=O` (stereo partly shown) [compound 22], the Wheal area in data set [2] (Table III / Example 1) amounted to 89.5 ± 5.5 mm^2 /10 μg.

With “N-Ac-D-3-Qal, D-pClPhe, D-3-Pal, Ser, c-PzACAla, D-PicLys, Leu, Arg, Pro, D-AlaNH2 [Argtide]”, the “column 0.125 (AOA, head not given)” value in the data set on rats [4] (Table V comparison of leading antagonists, column 0.125) is 63. In the data set with rats [4] (rats, Table VI / Example 3 text, from Janecka et al.), the “AOA %/μg 0.25” value was 88%. The “Histamine release ED50” value with rat mast cells [3] was 31 µg/mL. The ED50 histamine release in the data set on rat mast cells [3] (Table VI / Example 3 text, from Janecka et al.) was 31 µg/mL; in the data set with rat mast cells [1] it was 30.8 ± 0.59 µg/mL. Moreover, in the data set on rats [5] (0.125 μg), the “% AOA/μg dosage 0.125” value was 63%. Also, in the data set with rats [5] (0.25 μg), the “% AOA/μg dosage 0.25” value is recorded as 89%.

As for [D-Phe^2, Pro^3, DTrp^6 ] LHRH, the “dose giving AOA of 100% (AOA100)” value in the data set on rats [4] is 750 μg/rat.

Take “[N-Ac-D-2-Nal^1 ; D-pClPhe^2, D-Trp^3, D-Arg^6, D-Ala^10 ] LHRH”: the “dose giving AOA of 100% (AOA100)” value in the data set with rats [4] is on record as “ca. 0.5 μg/rat”.

“[N-Ac-D-2-Nal^1, D-pClPhe^2, D-3-Pal^3, Arg^5, D-Glu(AA)^6, D-Ala^10 ] LHRH [Nal-Glu]”: the “column 1.5 (AOA, head not given)” value in the data set on rats [4] (Table V, column 1.5) was 100.

With “[N-Ac-D-2-Nal^1, D-pClPhe^2, D-3-Pal^3, D-Arg^6, Trp^7, D-Ala^10 ] LHRH”, the “dose giving AOA of 100% (AOA100)” value in the data set with rats [4] was “ca. 0.5 μg/rat”.

With “[N-Ac-D-2-Nal^1, D-pClPhe^2, D-3-Pal^3, NicLys^5, D-NicLys^6, Ilys^8, D-Ala^10 ] LHRH [Antide]”, the Wheal area in data set [6] is recorded as 132.7 mm^2 /10 μg. In addition, in the data set with rats [4] (Table V, column 1.0), the “column 1.0 (AOA, head not given)” value was 100. The “dose giving AOA of 100% (AOA100)” value in the data set with rats [4] is recorded as 1 μg/rat. The “AOA %/μg 0.25” value in the data set with rats [4] (rats, Table III parent analogs from literature) was “inactive”. The “AOA %/μg 0.5” value in the data set with rats [4] (rats, 0.5 μg, Table III parent analogs from literature) is 36%. Further, in the data set on gonadotropin secretion, the “inhibition of gonadotropin secretion” value is recorded as “Prolonged duration of inhibition”. The “suppression of testosterone secretion” value in the data set on testosterone secretion was “long-term suppression”. The “ED50 for hist. release” value with rat mast cells [3] (Table III parent analogs from literature) is 300 µg/mL. Besides, the “Histamine release ED50” value in the data set on rat mast cells [3] is above 300 µg/mL. In the data set with rat mast cells [3] (background), the “ED50 for histamine release” value is 300 µg/mL and the “histamine release (in words)” value is “negligible”.

As for “[N-Ac-D-2-Nal^1, DpClPhe^2, D-Trp^3, D-Cit^6, D-Ala^10 ] LHRH”, the “dose giving AOA of 100% (AOA100)” value in the data set on rats [4] is 3 μg/rat.
